Laboratory results as given in patent US20250018047A1, “METHODS AND COMPOSITIONS FOR TARGETED PROTEIN DEGRADATION” (Ranok Therapeutics (Hangzhou) Co. Ltd., priority 2021, published 2025).
Counter-ions that a name gives are not always drawn.

What was measured:
KRAS(G12D)/SOS1 = target: T1, KRAS(G12D)/SOS1 (Homo sapiens, UniProt P01116, G12D); experiment: KRAS(G12D)/SOS1 homogeneous time-resolved fluorescence (HTRF) assay; format: binding; conditions: absence of GTP, 4° C. for 3 hr
T1 construct: purchased Cisbio 63ADK000CB16PEG
Method: The test compound was mixed and incubated with reaction components, incubated in a sealed plate at 4° C. for 3 hr and fluorescence was measured using a PerkinElmer Envision plate reader.

[1] = target: BA/F3-KRAS(G12D) murine pro-B cell line stably expressing KRAS(G12D) (Homo sapiens, UniProt P01116, G12D, cells depend on it); experiment: CellTiter-Glo cancer cell line proliferation assay, BA/F3-KRAS(G12D); format: cell-based; conditions: 24 hr, read-out: BAF3 at 24 hrs, IC50
Method: The following cancer cell lines were employed: AsPC-1 human pancreatic adenocarcinoma (ATCC, #CRL-1682); A-427 human lung carcinoma (ATCC, #HTB-53); BA/F3-KRAS(G12D) murine pro-B cell line stably expressing KRAS(G12D) (Precedo, Hefei, China). Cell lines were cultured according to ATCC and recommendations. BA/F3-KRAS(G12D) cells were cultured in RPMI 1640 media with 10% fetal calf serum, 100 units/mL penicillin and […] streptomycin, and 1% glutamine.
(§1) CellTiter-Glo® Reagent Cancer Cell Line Proliferation Assays
(§2) Cells were plated in 96-well tissue culture plates at 4,000 cells/well and incubated at 37° C./5% CO2 for 24 hr in 100 μl of media. 3-fold serial dilutions of each test compound were prepared ranging from 20 μM to 1.02 nM. Cells were then treated with test compounds at various concentrations with a final concentration of 0.5% DMSO/well, and then incubated at 37° C./5% CO2 for 24 hr. 100 μl of CellTiter-Glo® Reagent (Promega Corporation, Madison, WI) was added to each well and processed according manufacturer's protocol. Results were analyzed and IC50-values were calculated in GraphPad 7 software.

[2] = test system: A-427 human lung carcinoma; experiment: CellTiter-Glo cancer cell line proliferation assay, A-427; format: cell-based; conditions: Homo sapiens, A-427, 24 hr, read-out: A427 at 24 hrs, IC50
Method: (§3) Cell lines were cultured according to ATCC and recommendations.
as §1
as §2, with “3-fold serial dilutions of each test compound were prepared ranging from 20 μM to 1.02 nM.” left out

[3] = test system: AsPC-1 human pancreatic adenocarcinoma; experiment: CellTiter-Glo cancer cell line proliferation assay, AsPC-1; format: cell-based; conditions: Homo sapiens, ASPC1, 24 hr
Method: as §3, §1
as §2, with “3-fold serial dilutions of each test compound were prepared ranging from 20 μM to 1.02 nM.” left out

KRAS(G12D) = target: T2, KRAS(G12D) (Homo sapiens, UniProt P01116, G12D); experiment: SW1990 WB assay (degradation DC50, Dmax); format: cell-based; conditions: Western blot, SW1990 cells
T2 construct: endogenous in cells; host or cells: SW1990
T2 sequence (P01116 1-188 isoform P01116-2 G12D): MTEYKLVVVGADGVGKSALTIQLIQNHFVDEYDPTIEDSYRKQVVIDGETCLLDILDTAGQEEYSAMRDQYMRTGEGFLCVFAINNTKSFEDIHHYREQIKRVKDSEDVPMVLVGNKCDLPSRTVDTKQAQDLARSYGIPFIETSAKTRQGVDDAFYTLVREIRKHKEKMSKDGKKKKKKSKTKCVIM

BA/F3-KRAS(G12D) murine pro-B cell line stably expressing KRAS(G12D), sequence (P01116 whole entry G12D): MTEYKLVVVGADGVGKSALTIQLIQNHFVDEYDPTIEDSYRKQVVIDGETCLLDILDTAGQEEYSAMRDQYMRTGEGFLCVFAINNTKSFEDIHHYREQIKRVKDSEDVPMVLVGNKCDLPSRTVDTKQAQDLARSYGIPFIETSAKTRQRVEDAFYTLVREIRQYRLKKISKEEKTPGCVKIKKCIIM
T1 sequence (P01116 1-188 isoform P01116-2 G12D): as the sequence (P01116 1-188 isoform P01116-2 G12D) above

SMILES	IC50 (KRAS(G12D)/SOS1) [µM]	GI50 [1] [µM]	IC50 [2] [µM]	IC50 [3] [µM]	DC50 (KRAS(G12D)) [µM]	Dmax (KRAS(G12D)) [%]
Cc1ncsc1-c1ccc(CNC(=O)C2CC(O)CN2C(=O)C(NC(=O)C2CCN([C@H]3C[C@@H](COc4nc(N5CC6CCC(C5)N6)c5cnc(-c6cccc7cccc(Cl)c67)cc5n4)N(C)C3)CC2)C(C)(C)C)cc1 (stereo in doubt) [Compound 20, 1-[(3S,5S)-5-({[7-(8-chloronaphthalen-1-yl)-4-{3,8-diazabicyclo[3.2.1]octan-3-yl}pyrido[4,3-d]pyrimidin-2-yl]oxy}methyl)-1-methylpyrrolidin-3-yl]-N-[(2S)-1-[(2 S,4R)-4-hydroxy-2-({[4-(4-methyl-1,3-thiazol-5-yl)phenyl]methyl}carbamoyl)pyrrolidin-1-yl]-3,3-dimethyl-1-oxobutan-2-yl]piperidine-4-carboxamide]	> 1	> 1	–	–	–	–
C#Cc1cccc2cccc(-c3ncc4c(N5CC6CCC(C5)N6)nc(OCCN5CCN(CC6CCN(c7ccc8c(c7)C(=O)N(C7CCC(=O)NC7=O)C8=O)CC6)CC5)nc4c3F)c12 (stereo not shown) [Compound 1, 5-(4-((4-(2-((4-(3,8-diazabicyclo[3.2.1]octan-3-yl)-7-(8-ethynylnaphthalen-1-yl)-8-fluoropyrido[4,3-d]pyrimidin-2-yl)oxy)ethyl)piperazin-1-yl)methyl)piperidin-1-yl)-2-(2,6-dioxopiperidin-3-yl)isoindoline-1,3-dione hydrochloride]	0.1 to 1	> 1	> 1	–	–	–
C#Cc1cccc2cccc(-c3ncc4c(N5CC6CCC(C5)N6)nc(OCCN5CCN(Cc6ccc7c(c6)C(=O)N(C6CCC(=O)NC6=O)C7=O)CC5)nc4c3F)c12 (stereo not shown) [Compound 2, 5-((4-(2-((4-(3,8-diazabicyclo[3.2.1]octan-3-yl)-7-(8-ethynylnaphthalen-1-yl)-8-fluoropyrido[4,3-d]pyrimidin-2-yl)oxy)ethyl)piperazin-1-yl)methyl)-2-(2,6-dioxopiperidin-3-yl)isoindoline-1,3-dione hydrochloride]	< 0.1	> 1	> 1	> 1	–	–
C#Cc1cccc2cccc(-c3ncc4c(N5CC6CCC(C5)N6)nc(OCCC5CCN(CC6CCN(c7cccc8c7C(=O)N(C7CCC(=O)NC7=O)C8=O)CC6)CC5)nc4c3F)c12 (stereo not shown) [Compound 3, 4-(4-((4-(2-((4-(3,8-diazabicyclo[3.2.1]octan-3-yl)-7-(8-ethynylnaphthalen-1-yl)-8-fluoropyrido[4,3-d]pyrimidin-2-yl)oxy)ethyl)piperidin-1-yl)methyl)piperidin-1-yl)-2-(2,6-dioxopiperidin-3-yl)isoindoline-1,3-dione hydrochloride]	< 0.1	0.1 to 1	> 1	–	–	–
C#Cc1cccc2cccc(-c3ncc4c(N5CC6CCC(C5)N6)nc(OCCN5CCN(C(=O)C6CCN(c7ccc8c(c7)C(=O)N(C7CCC(=O)NC7=O)C8=O)CC6)CC5)nc4c3F)c12 (stereo not shown) [Compound 4, 5-(4-(4-(2-((4-(3,8-diazabicyclo[3.2.1]octan-3-yl)-7-(8-ethynylnaphthalen-1-yl)-8-fluoropyrido[4,3-d]pyrimidin-2-yl)oxy)ethyl)piperazine-1-carbonyl)piperidin-1-yl)-2-(2,6-dioxopiperidin-3-yl)isoindoline-1,3-dione formate]	> 1	> 1	> 1	–	–	–
C#Cc1cccc2cccc(-c3ncc4c(N5CC6CCC(C5)N6)nc(OC[C@@H]5CC[C@H](CN6CCN(Cc7ccc8c(c7)C(=O)N(C7CCC(=O)NC7=O)C8=O)CC6)N5C)nc4c3F)c12 (stereo partly drawn) [Compound 15, 5-((4-(((2R,5S)-5-(((4-(3,8-diazabicyclo[3.2.1]octan-3-yl)-7-(8-ethynylnaphthalen-1-yl)-8-fluoropyrido[4,3-d]pyrimidin-2-yl)oxy)methyl)-1-methylpyrrolidin-2-yl)methyl)piperazin-1-yl)methyl)-2-(2,6-dioxopiperidin-3-yl)isoindoline-1,3-dione formate]	< 0.1	> 1	> 1	–	–	–
C#Cc1cccc2cccc(-c3ncc4c(N5CC6CCC(C5)N6)nc(OC[C@@H]5CC[C@H](CN6CCN(C(=O)C7CCN(c8ccc9c(c8)C(=O)N(C8CCC(=O)NC8=O)C9=O)CC7)CC6)N5C)nc4c3F)c12 (stereo partly drawn) [Compound 16, 5-(4-(4-(((2R,5S)-5-(((4-(3,8-diazabicyclo[3.2.1]octan-3-yl)-7-(8-ethynylnaphthalen-1-yl)-8-fluoropyrido[4,3-d]pyrimidin-2-yl)oxy)methyl)-1-methylpyrrolidin-2-yl)methyl)piperazine-1-carbonyl)piperidin-1-yl)-2-(2,6-dioxopiperidin-3-yl)isoindoline-1,3-dione hydrochloride]	< 0.1	> 1	> 1	–	–	–
C#Cc1cccc2cc(O)cc(-c3nc(OC)c4c(N5CC6CCC(C5)N6)nc(OCC5(CN6CCN(CC7CCN(c8ccc9c(c8)CN(C8CCC(=O)NC8=O)C9=O)CC7)CC6)CC5)nc4c3F)c12 (stereo not shown) [Compound 78]	< 0.1	–	< 0.1	< 0.1	< 0.1	> 50
C#Cc1cccc2cc(O)cc(-c3ncc4c(N5CC6CCC(C5)N6)nc(OCC5(CN6CCN(CC7CCN(c8ccc9c(c8)CN(C)C9=O)CC7)CC6)CC5)nc4c3F)c12 [Compound 81]	< 0.1	–	0.1 to 1	0.1 to 1	> 1	10 to 50
C#Cc1cccc2cc(O)cc(-c3ncc4c(N5CC6CCC(C5)N6)nc(OCC5(CN6CCN(CC7CCN(CCC(=O)N[C@@H](C(=O)N8C[C@@H](O)C[C@@H]8C(=O)NCc8ccc(-c9scnc9C)cc8)C(C)(C)C)CC7)CC6)CC5)nc4c3F)c12 [Compound 83]	< 0.1	–	> 1	> 1	> 1	10 to 50
C#Cc1c(F)ccc2cc(O)cc(-c3nc(OC)c4c(N5CC6CCC(C5)N6C(=O)C(F)(F)F)nc(OCC5(CN6CCN(CC7CCN(c8ccc9c(c8)CN(C8CCC(=O)NC8=O)C9=O)CC7)CC6)CC5)nc4c3F)c12 (stereo not shown) [Compound 93]	< 0.1	–	> 1	0.1 to 1	0.1 to 1	10 to 50
C#Cc1cccc2cc(O)cc(-c3ncc4c(N5CC6CCC(C5)N6)nc(OCC5(CN6CCN(CC7CCN(c8ccc(NC9CCC(=O)NC9=O)cc8)CC7)CC6)CC5)nc4c3F)c12 (stereo not shown) [Compound 95]	< 0.1	–	0.1 to 1	0.1 to 1	> 1	< 10
C#Cc1cccc2cc(O)cc(-c3ncc4c(N5CC6CCC(C5)N6)nc(OCC5(CN6CCN(CC7CCN(c8ccc9c(c8)CN(C8CCC(=O)NC8=O)C9=O)CC7)[C@@H](C7CC7)C6)CC5)nc4c3F)c12 (stereo partly shown) [Compound 96]	< 0.1	–	0.1 to 1	< 0.1	> 1	10 to 50
C=CC(=O)N1CCN(c2nc(OCC3(CN4CCN(CC5CCN(c6ccc7c(c6)CN(C6CCC(=O)NC6=O)C7=O)CC5)CC4)CC3)nc3c2CCN(c2cccc4cccc(Cl)c24)C3)C[C@@H]1CC#N (stereo partly shown) [Compound 98]	> 1	–	> 1	> 1	> 1	< 10
C#Cc1c(F)ccc2cc(O)cc(-c3ncc4c(N5CC6CCC(C5)N6)nc(OCC5(CN6CCC(CN7CCN(c8ccc9c(c8)CN(C8CCC(=O)NC8=O)C9=O)CC7)CC6)CC5)nc4c3F)c12 (stereo not shown) [Compound 99]	< 0.1	–	> 1	< 0.1	< 0.1	> 50
C#Cc1c(F)ccc2cc(O)cc(-c3nc(OC)c4c(N5CC6CCC(C5)N6)nc(OCC5(CN6CCN(CC7CCN(c8ccc9c(c8)CN(C8CCC(=O)NC8=O)C9=O)CC7)CC6)CC5)nc4c3F)c12 (stereo not shown) [Compound 100]	< 0.1	–	0.1 to 1	< 0.1	> 1	10 to 50
C#Cc1c(F)ccc2cc(O)cc(-c3ncc4c(N5CC6CCC(C5)N6)nc(OCC5(CN6CCC(C7CCN(c8ccc9c(c8)CN(C8CCC(=O)NC8=O)C9=O)CC7)CC6)CC5)nc4c3F)c12 (stereo not shown) [Compound 102]	< 0.1	–	0.1 to 1	< 0.1	0.1 to 1	10 to 50
C#Cc1c(F)ccc2cc(O)cc(-c3ncc4c(N5CC6CCC(C5)N6)nc(OCC5(CN6CCN(CC7CN(c8ccc9c(c8)CN(C8CCC(=O)NC8=O)C9=O)C7)CC6)CC5)nc4c3F)c12 (stereo not shown) [Compound 103]	< 0.1	–	> 1	0.1 to 1	> 1	10 to 50
